Source: ChEMBL document CHEMBL6121044, “Discovery of Novel Spirocyclic MAT2A Inhibitors Demonstrating High In Vivo Efficacy in MTAP-Null Xenograft Models” (J Med Chem, 2025)

How the values were obtained:
[1] = biological target: S-adenosylmethionine synthase isoform type-2 (Homo sapiens, UniProt P31153); test: Inhibition of MAT2A (unknown origin) assessed as release of inorganic phosphate using ATP/L-methionine pre-incubated for 30 mins followed by substrate addition measured after 2.5 hrs by colorimetric assay
Sequence of S-adenosylmethionine synthase isoform type-2 (P31153 whole entry, canonical isoform): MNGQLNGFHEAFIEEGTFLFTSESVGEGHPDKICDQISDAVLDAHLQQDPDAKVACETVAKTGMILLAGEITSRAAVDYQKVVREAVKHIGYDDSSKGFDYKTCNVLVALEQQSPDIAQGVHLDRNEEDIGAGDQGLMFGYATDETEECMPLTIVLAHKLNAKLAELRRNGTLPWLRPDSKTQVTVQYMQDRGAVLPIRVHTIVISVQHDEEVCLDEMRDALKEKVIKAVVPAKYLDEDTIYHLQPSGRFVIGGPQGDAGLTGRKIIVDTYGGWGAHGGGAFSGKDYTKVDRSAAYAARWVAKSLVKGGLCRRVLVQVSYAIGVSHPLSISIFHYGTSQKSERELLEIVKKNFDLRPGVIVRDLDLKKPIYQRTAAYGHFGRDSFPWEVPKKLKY

[2] = Microsomal metabolic stability in mouse liver microsomes assessed as clearance; format: ADME, Microsome; settings: read-out: CLH
HCT-116 [3] = test: Antiproliferative activity against MTAP-knock out human HCT-116 cells assessed as maximal inhibition rate at 10 uM measured after 5 days by CTG assay relative to control; format: functional; settings: time 5 day
[4] = Clearance in male ICR mouse at 10 mg/kg, po and 2 mg/kg, iv measured upto 24 hrs; format: ADME, organism-based; settings: in vivo
[5] = Lipophilicity, log D of compound at pH 7.4 byHPLC method; format: physicochemical; settings: buffer
[6] = Volume of distribution at steady state in male ICR mouse at 10 mg/kg, po and 2 mg/kg, iv measured upto 24 hrs; format: ADME, organism-based; settings: in vivo
[7] = Microsomal metabolic stability in human liver microsomes assessed as clearance; format: ADME, Microsome; settings: read-out: CLH
[8] = Half life in male ICR mouse at 10 mg/kg, po and 2 mg/kg, iv measured upto 24 hrs; format: ADME, organism-based; settings: in vivo
[9] = AUC (0 to infinity) in male ICR mouse at 10 mg/kg, po and 2 mg/kg, iv measured upto 24 hrs; format: ADME, organism-based; settings: in vivo
HCT-116 [10] = test: Antiproliferative activity against MTAP-knock out human HCT-116 cells assessed as proliferation inhibition rate measured after 5 days by CTG assay; format: functional, cell-based; settings: HCT-116, 120 h

Structure (SMILES) | IC50 [1] | CLint scaled [2] | clearance [4] | logD [5] | Vdss [6] | CLint scaled [7] | half-life [8] | AUC(0-inf) [9] | IC50 (HCT-116 [10]) | Imax (HCT-116 [3])
CNC1=NC(=O)C2(OCc3ccccc32)c2nc(C(F)(F)F)ccc21 (stereo not drawn) | > 3000 nM |  |  |  |  |  |  |  |  | 
CNC1=NC(=O)C2(CCc3ncccc32)c2cc(C(F)(F)F)ccc21 (racemic) | 11 nM | 51.2 mL/min/kg | 6.77 mL/min/kg | 1.83 | 2.2 L/kg | < 9.3 mL/min/kg | 212 min | 35200 ng·h/mL | 97 nM | 93.27%
O=C1N=C(NC2COC2)c2ccc(C(F)(F)F)cc2C12CCc1ncccc12 (racemic) | > 3000 nM |  |  | 1.57 |  |  |  |  |  | 
COc1cc(NC2=NC(=O)C3(CCc4ncccc43)c3cc(C(F)(F)F)ccc32)ccn1 (racemic) | 12 nM |  |  | 3.29 |  |  |  |  | 180 nM | 56.22%
CNC1=NC(=O)C2(CCc3ncccc32)c2cc(C3CC3)ncc21 (stereo not drawn) | 47 nM |  |  | 1.1 |  |  |  |  | 1060 nM | 79.52%
CNC1=NC(=O)C2(CCc3c(C#N)cccc32)c2nc(C(F)(F)F)ccc21 (stereo not drawn) | 18 nM | 48.2 mL/min/kg |  |  |  | < 9.3 mL/min/kg |  |  | 1100 nM | 76.16%
CNC1=NC(=O)C2(CCc3cc(F)ccc32)c2nc(C(F)(F)F)ccc21 (stereo not drawn) | 33 nM | 71.6 mL/min/kg |  |  |  | < 9.3 mL/min/kg |  |  | 4710 nM | 55.77%
CNC1=NC(=O)C2(CCc3ncccc32)c2cc(C=C(F)F)ccc21 (stereo not drawn) | 16 nM |  |  | 1.95 |  |  |  |  | 2440 nM | 96.49%
CNC1=NC(=O)C2(Cc3ccccc3C2)c2nc(C(F)(F)F)ccc21 | 55 nM |  |  |  |  |  |  |  |  | 
CNC1=NC(=O)C2(CCc3c(Br)cccc32)c2nc(C(F)(F)F)ccc21 (stereo not drawn) | 18 nM |  |  |  |  |  |  |  |  | 
CNC1=NC(=O)C(C)(c2ccccc2)c2nc(C(F)(F)F)ccc21 (stereo not drawn) | 57 nM |  |  |  |  |  |  |  |  | 
CNC1=NC(=O)C2(CCc3ncccc32)c2cc(C3CC3)cc(F)c21 (stereo not drawn) | 13 nM |  |  | 2.21 |  |  |  |  | 240 nM | 78.29%
CNc1nc(=O)n(-c2ccccc2Cl)c2nc(C(F)(F)F)ccc12 (single isomer, unassigned; atropisomer 2) | 86 nM |  |  |  |  |  |  |  |  | 
CNC1=NC(=O)C2(CCCc3ccccc32)c2nc(C(F)(F)F)ccc21 (stereo not drawn) | 12 nM | 193 mL/min/kg |  |  |  | 24.1 mL/min/kg |  |  | 57 nM | 74.25%
COC1(C(=O)N2Cc3nc(Cl)nc(N[C@H](C)c4cc(N)cc(C(F)(F)F)c4)c3C2)CCOCC1 |  | < 9.3 mL/min/kg |  |  |  | < 9.3 mL/min/kg |  |  |  | 
CNC1=NC(=O)C2(CCc3cccnc32)c2nc(C(F)(F)F)ccc21 (stereo not drawn) | 591 nM |  |  |  |  |  |  |  |  | 
CNC1=NC(=O)C2(CC(C)(C)c3ccccc32)c2nc(C(F)(F)F)ccc21 (stereo not drawn) | 78 nM |  |  |  |  |  |  |  | > 10000 nM | 
C=C(c1ccc2c(c1)C1(CCc3ncccc31)C(=O)N=C2NC)C(F)(F)F (stereo not drawn) | 64 nM |  |  | 2.4 |  |  |  |  |  | 
CNC1=NC(=O)C2(CCc3c(F)cccc32)c2nc(C(F)(F)F)ccc21 (stereo not drawn) | 11 nM | 118 mL/min/kg |  |  |  | 13.4 mL/min/kg |  |  | 105 nM | 86.45%
CNC1=NC(=O)C2(CCc3ccc(F)cc32)c2nc(C(F)(F)F)ccc21 (stereo not drawn) | 55 nM |  |  |  |  |  |  |  | 23300 nM | 52.53%
CN(C)C1=NC(=O)C2(CCc3ncccc32)c2cc(C(F)(F)F)ccc21 (racemic) | 19 nM |  |  | 2.24 |  |  |  |  | 119 nM | 79.25%
CNC1=NC(=O)C2(COc3ccccc32)c2nc(C(F)(F)F)ccc21 (stereo not drawn) | 115 nM |  |  |  |  |  |  |  | 5080 nM | 51.99%
CNC1=NC(=O)C2(CCc3cccc(F)c32)c2nc(C(F)(F)F)ccc21 (stereo not drawn) | 24 nM |  |  |  |  |  |  |  | 225 nM | 71.66%

Continued by falling IC50 [1], values first:

IC50 [1] | CLint scaled [2] | clearance [4] | logD [5] | Vdss [6] | CLint scaled [7] | half-life [8] | AUC(0-inf) [9] | IC50 (HCT-116 [10]) | Structure (SMILES) | Imax (HCT-116 [3])
10 nM | < 29.3 mL/min/kg |  | 2.73 |  | < 9.3 mL/min/kg |  |  | 263 nM | O=C1N=C(NCC(F)(F)F)c2ccc(C(F)(F)F)cc2C12CCc1ncccc12 (racemic) | 101.9%
9 nM | 67 mL/min/kg | 9.06 mL/min/kg |  | 2.42 L/kg | < 9.3 mL/min/kg | 201 min | 18600 ng·h/mL | 149 nM | CNC1=NC(=O)C2(CCc3ncccc32)c2nc(C(F)(F)F)ccc21 (stereo not drawn) | 87.63%
9 nM | 55 mL/min/kg |  | 1.57 |  | < 9.3 mL/min/kg |  |  | 101 nM | CNC1=NC(=O)C2(CCc3ncccc32)c2cc(C(C)(F)F)ccc21 (stereo not drawn) | 100%
8 nM |  |  | 1.36 |  |  |  |  | 193 nM | CNC1=NC(=O)C2(CCc3ncccc32)c2cc(OC(F)F)ccc21 (stereo not drawn) | 83.08%
8 nM | 42.5 mL/min/kg | 5.13 mL/min/kg | 1.82 | 1.39 L/kg | < 9.3 mL/min/kg | 218 min | 56700 ng·h/mL | 115 nM | [2H]C([2H])([2H])NC1=NC(=O)C2(CCc3ncccc32)c2cc(C(F)(F)F)ccc21 (racemic) | 92%
7 nM | 59 mL/min/kg | 29.3 mL/min/kg |  | 3.665 L/kg | < 9.3 mL/min/kg | 123 min | 6020 ng·h/mL | 17 nM | CNC1=NC(=O)C2(CCc3ccccc32)c2nc(C(F)(F)F)ccc21 (stereo not drawn) | 77.71%
6 nM | 85.7 mL/min/kg |  | 1.92 |  | 12.3 mL/min/kg |  |  | 66 nM | CNC1=NC(=O)C2(CCc3ncccc32)c2cc(C3CC3)ccc21 (stereo not drawn) | 97.11%
6 nM |  |  | 2.55 |  |  |  |  | 405 nM | CNC1=NC(=O)C2(CCc3ncccc32)c2cc(C(F)(F)C(F)(F)F)ccc21 (stereo not drawn) | 66.34%
5 nM |  |  | 2.88 |  |  |  |  | 283 nM | O=C1N=C(NC2CC(F)(F)C2)c2ccc(C(F)(F)F)cc2C12CCc1ncccc12 (racemic) | 77.73%
4 nM | 63 mL/min/kg | 13.1 mL/min/kg | 1.92 | 1.26 L/kg | 11.2 mL/min/kg | 88.2 min | 22000 ng·h/mL | 55 nM | [2H]C([2H])([2H])NC1=NC(=O)[C@]2(CCc3ncccc32)c2cc(C3CC3)ccc21 | 78.6%
4 nM |  |  | 2.77 |  |  |  |  | 146 nM | O=C1N=C(NC2CC2)c2ccc(C(F)(F)F)cc2C12CCc1ncccc12 (racemic) | 71.61%
4 nM | 38.9 mL/min/kg |  | 2.24 |  | < 9.3 mL/min/kg |  |  | 83 nM | CNC1=NC(=O)C2(CCc3ncccc32)c2cc(C3CC3)c(F)cc21 (stereo not drawn) | 84.78%
3 nM |  |  |  |  |  |  |  |  | Nc1nc(=O)n(-c2ccccc2Cl)c2nc(C(F)(F)F)ccc12 (single isomer, unassigned; atropisomer A) | 
3 nM |  |  |  |  |  |  |  |  | CNc1nc(=O)n(-c2ccccc2Cl)c2nc(C(F)(F)F)ccc12 (single isomer, unassigned; atropisomer 1) | 
